Entries after “also recorded” stand apart in the source; their conditions may differ. Each block holds one molecule with its values, some of them ahead of it.
What was measured:
[1] = system: AKT; assay: Western blot of AKT protein levels in MDA-MB-468 cells; format: cell-based; conditions: 0.3 μM, 1 μM, 3 μM, or 10 μM for 24 h
Description: (§1) Cells were lysed in 2× sample buffer (125 mM Tris-HCl at pH 6.8, 10% βME, 2% SDS, 20% glycerol, 0.05% Bromophenol Blue, 8 M urea). Protein lysates were loaded into 4-12% Bis-Tris gels and resolved by electrophoresis. Samples were then blotted on PVDF membrane (Millipore IPVH00010) using the wet transfer technique (Invitrogen). Membranes were blocked in 5% milk-TBST for 1 hour, washed in TBST for 10 min, and incubated in primary antibody in 5% milk-TBST or 5% BSA-TBST at 4° C. for 16 h. Membranes were rinsed (3×6 min) in TBST and incubated in horseradish peroxidase-conjugated secondary antibodies in 5% milk-TBST for 1 hour and rinsed again in TBST (3×6 min). Membranes were visualized using the chemiluminescence system (Thermo 34080, 37075) on autoradiography film (Denville E3018). Primary Antibodies: R-actin (Sigma A5316), p-AKT (Ser473 CST-9721), total AKT (CST-9272), p-S6 (Ser240/244, CST-5364), p-PRAS40 (Thr246, CST-2997). Secondary Antibodies: Mouse (Thermo 31432), Rabbit (Thermo 31460).

[2] = system: AKT; assay: Western blot of AKT protein levels in U87MG cells; format: cell-based; conditions: 0.3 μM, 1 μM, 3 μM, or 10 μM for 24 h
Description: as §1

[3] = system: AKT; assay: Western blot of AKT protein levels in PC-3 cells; format: cell-based, human; conditions: 0.3 μM, 1 μM, 3 μM, or 10 μM for 24 h (FIG. 4B)
Description: PC-3, U87MG, HCC1143, MDA-MB-231, MDA-MB-468, BT474 and MCF-7 cell lines were purchased from ATCC. Cell lines were regularly tested in the lab for mycoplasma. All cells were cultured at 37° C. and 5% CO2. PC-3, U87MG, MDA-MB-231, MCF-7 and BT474 cells were cultured in 1×DMEM (Corning, 10-013-CV) with 10% fetal bovine serum (Atlanta Biologicals S11150) and 1× Penicillin/Streptomycin. HCC1143 cells were cultured in RPMI (Corning, 10-040-CV) medium with 10% fetal bovine serum (Atlanta Biologicals S11150) and 1× Penicillin/Streptomycin. Cells were split using 0.05% or 0.25% trypsin (Corning 25-051-Cl or 25-053-Cl, respectively) before they reached full confluence and media was changed every 3-4 days. Cells were treated with compounds individually at different concentrations for 24 hrs. Cells were treated with DMSO, VHL, or PML alone as controls.
as §1

[4] = system: AKT; assay: Western blot of AKT protein levels and downstream signaling in BT474 cells; format: cell-based, human; conditions: for suppression of AKT protein level and AKT activity: Western blot (FIGS. 1, 3, 4)
How it was run: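 Lysates were immunoblotted with chemiluminescent detection for p-AKT Ser473, total AKT, p-S6 Ser240/244 and p-PRAS40 Thr246, using actin as loading control.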

[5] = system: colon cancer xenograft with RAS/RAF activation albeit with PIK3CA mutation; conditions: alone; xenograft with RAS/RAF activation and PIK3CA mutation; cited from earlier work
[6] = phase I clinical trial (Saura et al., 2017); cited from earlier work
[7] = system: AKT; assay: Time course Western blot of AKT degradation in BT474 cells; format: cell-based, human; conditions: for time point for the most significant AKT degradation: BT474 cells (FIGS. 2 and 5); for time-dependent reduction of AKT, p-AKT, P-PRAS40 (T246), and P-S6 (S240/244) protein levels: BT474 cells, 1 μM
Description: as §1

[8] = system: MDA-MB-468 cells; assay: Cell proliferation (IncuCyte live cell imaging) in MDA-MB-468 cells; format: cell-based; conditions: MDA-MB-468 cells (FIG. 7)
Description: (§2) 1-3×10^3 PC-3 or MDA-MB-468 cells were seeded in 96-well plates in triplicates and treated at the indicated compound concentrations. Cells were monitored using the IncuCyte® live cell imaging system (Essen Bioscience™, Ann Arbor, Mich.) which was placed in a cell culture incubator operated at 37° C. and 5% CO2. Cell confluence was determined using calculations derived from phase-contrast images. The concentration for 50% of maximal inhibition of cell proliferation (GI50) values were determined by fitting to a standard four-parameter logistic using GraphPad Prism® v5.
(§3) Experiments were carried out in 96-well plates in triplicates. A total of 1-3×10^3 cells per well were grown in the presence of 1 μM of AZD5363 (Selleckchem), 1 μM of selected degrader compounds. Cells were then monitored for 3-4 days using the IncuCyte live cell imaging system (Essen BioScience, Ann Arbor, Mich., USA), which was placed in a cell culture incubator operated at 37° C. and 5% CO2. Cell confluence was determined using calculations derived from phase-contrast images. For measurement of cell death DRAQ7 (Cell Signaling #7406) at 1.5 μM was included in the medium and apoptotic red counts were measured in IncuCyte™ FLR automated incubator microscope.

[9] = system: MDA-MB-468 cells; assay: Colony formation (Crystal Violet) in MDA-MB-468 cells; format: cell-based; conditions: 0.1-10 μM for 2 weeks (FIG. 8)
Description: (§4) PC-3, MDA-MB-468, HCC1143, and MDA-MB-231 cells were treated with DMSO, AZD5363 or XF050-21 at 0.1 μM, 0.3 μM, 1 μM, 3 μM, or 10 μM for 2 weeks.
(§5) Cells were cultured for 12-17 days in the presence of different compounds. Media with compound was replenished every two days. At the end of the experiment, media was aspirated and viable cells were stained with 0.5% crystal violet dye.

[10] = system: MDA-MB-231 cells; assay: Colony formation (Crystal Violet) in MDA-MB-231 cells; format: cell-based; conditions: 0.1-10 μM for 2 weeks (FIG. 8)
Description: as §4, §5

[11] = system: AKT; assay: Rescue of XF050-21 induced AKT degradation by pretreatment in BT474 cells; format: cell-based, human
Description: BT474 Cells were pre-treated with DMSO, VHL-1 (1 mM), MLN4924 (1 μM), MG-132 (20 μM) or AZD5363 (1 μM) for 2 h, before being treated with the 1 μM XF050-21 compounds for 24 h.
as §1

[12] = system: PC-3 cells; assay: Colony formation (Crystal Violet) in PC-3 cells; format: cell-based, human; conditions: 0.1-10 μM for 2 weeks (FIG. 8)
Description: as §4, §5

[13] = system: PC-3 cells; assay: Cell proliferation (IncuCyte live cell imaging) in PC-3 cells; format: cell-based, human; conditions: PC-3 cells (FIG. 7)
Description: as §2, §3

[14] = system: AKT; assay: Combination of AKT degrader and mTOR inhibitor, Western blot in BT474 cells; format: cell-based, human; conditions: 24 h, combined with an mTOR inhibitor (Torin1 or Rapamycin)
Description: as §1

[15] = Mouse PK study, plasma exposure; format: in vivo, Swiss Albino mice
Description: Standard PK studies were conducted using male Swiss Albino mice. A single 75 mg/kg intraperitoneal (IP) injection of XF050-21 was evaluated. Plasma concentrations of XF050-21 reported at each of the six time points (30 min, 1 h, 2 h, 4 h, 8 h, and 12 h post dosing) are the average values from 3 test animals.

[16] = system: HCC1143 cells; assay: Colony formation (Crystal Violet) in HCC1143 cells; format: cell-based; conditions: 0.1-10 μM for 2 weeks (FIG. 8)
Description: as §4, §5

[17] = system: AKT; assay: Time course Western blot of AKT degradation in PC-3 cells; format: cell-based, human; conditions: PC3 cells, 1 μM
Description: BT474 cells and PC-3 cells were treated with DMSO or the indicated compounds at a fixed concentration of 1 μM for 1, 2, 4, 8, 12, or 24 h. […] The maximum degradation of AKT and inhibition of downstream signaling were observed after 12 h of treatment in PC-3 cells (FIG. 5B).
as §1

Structure (SMILES): NC1(C(=O)N[C@@H](CCO)c2ccc(Cl)cc2)CCN(c2ncnc3[nH]ccc23)CC1 [AZD5363, 4-amino-N-[(1S)-1-(4-chlorophenyl)-3-hydroxypropyl]-1-(7H-pyrrolo[2,3-d]pyrimidin-4-yl)piperidine-4-carboxamide, reference compound]
AKT protein levels [1]: no effect | pAKT levels [1]: increased | AKT protein levels [2]: no effect | pAKT levels [2]: increased | AKT protein levels [3]: no effect | pAKT levels [3]: increased | AKT protein levels ([4]; 1 μM, 5 μM, or 10 μM for 24 h): no effect | pAKT levels ([4]; 1 μM, 5 μM, or 10 μM for 24 h): increased | AKT protein levels ([4]; 0.01-1 μM for 24 h (FIG. 4A)): no effect | pAKT levels ([4]; 0.01-1 μM for 24 h (FIG. 4A)): increased

Structure (SMILES): CC(C)NC[C@@H](C(=O)N1CCN(c2ncnc3c2[C@H](C)C[C@H]3O)CC1)c1ccc(Cl)cc1 [GDC0068]
efficacy in colon cancer xenograft [5]: not very effective | objective tumor shrinkage [6]: failed to result in significant objective tumor shrinkage

Structure (SMILES): Cc1ncsc1-c1ccc(CNC(=O)[C@@H]2C[C@@H](O)CN2C(=O)[C@@H](NC(=O)CCCCCCCCCCNC(=O)CCNC[C@@H](C(=O)N2CCN(c3ncnc4c3[C@H](C)C[C@H]4O)CC2)c2ccc(Cl)cc2)C(C)(C)C)cc1 [XF038-166A, (2S,4R)-1-((S)-2-(11-(3-(((S)-2-(4-chlorophenyl)-3-(4-((5R,7R)-7-hydroxy-5-methyl-6,7-dihydro-5H-cyclopenta[d]pyrimidin-4-yl)piperazin-1-yl)-3-oxopropyl)amino)propanamido)undecanamido)-3,3-dimethylbutanoyl)-4-hydroxy-N-(4-(4-methylthiazol-5-yl)benzyl)pyrrolidine-2-carboxamide]
time point for the most significant AKT degradation [7]: 24 h | time-dependent reduction of AKT, p-AKT, P-PRAS40 (T246), and P-S6 (S240/244) protein levels [7]: time-dependently reduces | suppression of AKT protein level and AKT activity [4]: effective in suppressing both AKT protein level and AKT activity

clinical observations during PK study ([15]; male Swiss Albino mice, single 75 mg/kg IP): no abnormal clinical observations noted | bioavailability in mice ([15]; single 75 mg/kg IP injection, plasma): Bioavailable
Structure (SMILES): Cc1ncsc1-c1ccc(CNC(=O)[C@@H]2C[C@@H](O)CN2C(=O)[C@@H](NC(=O)CCCCCCCCCC(=O)N2CCN(CC[C@H](NC(=O)C3(N)CCN(c4ncnc5[nH]ccc45)CC3)c3ccc(Cl)cc3)CC2)C(C)(C)C)cc1 [XF050-21, 4-amino-N-((S)-1-(4-chlorophenyl)-3-(4-(11-(((S)-1-((2S,4R)-4-hydroxy-2-((4-(4-methylthiazol-5-yl)benzyl)carbamoyl)pyrrolidin-1-yl)-3,3-dimethyl-1-oxobutan-2-yl)amino)-11-oxoundecanoyl)piperazin-1-yl)propyl)-1-(7H-pyrrolo[2,3-d]pyrimidin-4-yl)piperidine-4-carboxamide]
cell proliferation inhibition compared with AZD5363 [8]: more effective than AZD5363; also recorded: better cell proliferation inhibition activity than AZD5363 | colony formation inhibition compared with AZD5363 [9]: more effective in inhibiting cancer cell proliferation than AZD5363; also recorded: better colony formation inhibition than AZD5363 | AKT protein levels [1]: significantly reduced | colony formation inhibition compared with AZD5363 [10]: more effective in inhibiting cancer cell proliferation than AZD5363; also recorded: better colony formation inhibition than AZD5363 | mechanism of induced AKT protein degradation [11]: mediated by hijacking the E3 ubiquitin ligase VHL | rescue of AKT degradation by pretreatment ([11]; 2 h pretreatment with VHL-1, MLN4924, MG-132 or AZD5363, then 1 μM XF050-21 for 24 h): can be rescued by VHL-1, MLN4924, MG-132 or AZD5363 pretreatment; also recorded: can be blocked by pretreatment of VHL-1, MLN4924, MG132, and AZD5363; also recorded: can be rescued by pretreatment of the cells with VHL-1, MLN4924, MG132 and AZD5363 | colony formation inhibition compared with AZD5363 [12]: more effective in inhibiting cancer cell proliferation than AZD5363; also recorded: better colony formation inhibition than AZD5363 | time point for the most significant AKT degradation [7]: 24 h | time-dependent reduction of AKT, p-AKT, P-PRAS40 (T246), and P-S6 (S240/244) protein levels [7]: time-dependently reduce | cell proliferation inhibition compared with AZD5363 [13]: more effective than AZD5363; also recorded: better cell proliferation inhibition activity than AZD5363 | AKT protein levels [2]: significantly reduced | AKT protein levels and downstream signaling under combination treatment [14]: reduced AKT protein levels and inhibited downstream signaling; also recorded: significantly reduced the AKT protein levels and AKT downstream signaling | AKT protein levels [3]: significantly reduced | colony formation inhibition compared with AZD5363 [16]: more effective in inhibiting cancer cell proliferation than AZD5363; also recorded: better colony formation inhibition than AZD5363 | time-dependent reduction of AKT, p-AKT, P-PRAS40 (T246), and P-S6 (S240/244) protein levels [17]: time-dependently reduces | suppression of AKT protein level and AKT activity [4]: effective in suppressing both AKT protein level and AKT activity
